{
  "source": "ChEMBL document CHEMBL2396528",
  "about": "“Synthesis of new conjugated coumarin-benzimidazole hybrids and their anticancer activity” (2013)",
  "assay_type_in_all_cases": "functional",
  "key": {"HOP-62": {"tested_on": "HOP-62", "assay": "Cytotoxicity against human HOP62 cells assessed as growth inhibition at 10 uM after 48 hrs by SRB assay relative to control", "settings": "HOP-62, 48 h, read-out: GI"}, "SK-MEL-2": {"tested_on": "SK-MEL-2", "assay": "Cytotoxicity against human SK-MEL-2 cells assessed as growth inhibition at 10 uM after 48 hrs by SRB assay relative to control", "settings": "SK-MEL-2, 48 h, read-out: GI"}, "HCC 2998": {"tested_on": "HCC 2998", "assay": "Cytotoxicity against human HCC2998 cells assessed as growth inhibition at 10 uM after 48 hrs by SRB assay relative to control", "settings": "HCC 2998, 48 h, read-out: GI"}, "NCI-H226": {"tested_on": "NCI-H226", "assay": "Cytotoxicity against human NCI-H226 cells assessed as growth inhibition at 10 uM after 48 hrs by SRB assay relative to control", "settings": "NCI-H226, 48 h, read-out: GI"}, "DU-145": {"tested_on": "DU-145", "assay": "Cytotoxicity against human DU145 cells assessed as growth inhibition at 10 uM after 48 hrs by SRB assay relative to control", "settings": "DU-145, 48 h, read-out: GI"}, "KM12": {"tested_on": "KM12", "assay": "Cytotoxicity against human KM12 cells assessed as growth inhibition at 10 uM after 48 hrs by SRB assay relative to control", "settings": "KM12, 48 h, read-out: GI"}, "UACC-257": {"tested_on": "UACC-257", "assay": "Cytotoxicity against human UACC257 cells assessed as growth inhibition at 10 uM after 48 hrs by SRB assay relative to control", "settings": "UACC-257, 48 h, read-out: GI"}, "PC-3": {"tested_on": "PC-3", "assay": "Cytotoxicity against human PC3 cells assessed as growth inhibition at 10 uM after 48 hrs by SRB assay relative to control", "settings": "PC-3, 48 h, read-out: GI"}, "NCI-H23": {"tested_on": "NCI-H23", "assay": "Cytotoxicity against human NCI-H23 cells assessed as growth inhibition at 10 uM after 48 hrs by SRB assay relative to control", "settings": "NCI-H23, 48 h, read-out: GI"}, "SK-MEL-5": {"tested_on": "SK-MEL-5", "assay": "Cytotoxicity against human SK-MEL-5 cells assessed as growth inhibition at 10 uM after 48 hrs by SRB assay relative to control", "settings": "SK-MEL-5, 48 h, read-out: GI"}, "U-251": {"tested_on": "U-251", "assay": "Cytotoxicity against human U251 cells assessed as growth inhibition at 10 uM after 48 hrs by SRB assay relative to control", "settings": "U-251, 48 h, read-out: GI"}, "Malme-3M": {"tested_on": "Malme-3M", "assay": "Cytotoxicity against human MALME-3M cells assessed as growth inhibition at 10 uM after 48 hrs by SRB assay relative to control", "settings": "read-out: GI"}, "[1]": {"assay": "Cytotoxicity against human NCI-ADR-RES cells assessed as growth inhibition at 10 uM after 48 hrs by SRB assay relative to control", "settings": "read-out: GI"}, "CCRF-CEM": {"tested_on": "CCRF-CEM", "assay": "Cytotoxicity against human CCRF-CEM cells assessed as growth inhibition at 10 uM after 48 hrs by SRB assay relative to control", "settings": "read-out: GI"}, "OVCAR-3": {"tested_on": "OVCAR-3", "assay": "Cytotoxicity against human OVCAR3 cells assessed as growth inhibition at 10 uM after 48 hrs by SRB assay relative to control", "settings": "OVCAR-3, 48 h, read-out: GI"}, "SF-539": {"tested_on": "SF-539", "assay": "Cytotoxicity against human SF539 cells assessed as growth inhibition at 10 uM after 48 hrs by SRB assay relative to control", "settings": "SF-539, 48 h, read-out: GI"}, "BT-549": {"tested_on": "BT-549", "assay": "Cytotoxicity against human BT549 cells assessed as growth inhibition at 10 uM after 48 hrs by SRB assay relative to control", "settings": "BT-549, 48 h, read-out: GI"}, "MDA-MB-468": {"tested_on": "MDA-MB-468", "assay": "Cytotoxicity against human MDA-MB-468 cells assessed as growth inhibition at 10 uM after 48 hrs by SRB assay relative to control", "settings": "MDA-MB-468, 48 h, read-out: GI"}, "SNB-75": {"tested_on": "SNB-75", "assay": "Cytotoxicity against human SNB75 cells assessed as growth inhibition at 10 uM after 48 hrs by SRB assay relative to control", "settings": "SNB-75, 48 h, read-out: GI"}, "SF-268": {"tested_on": "SF-268", "assay": "Cytotoxicity against human SF268 cells assessed as growth inhibition at 10 uM after 48 hrs by SRB assay relative to control", "settings": "SF-268, 48 h, read-out: GI"}, "MDA-MB-231": {"tested_on": "MDA-MB-231", "assay": "Cytotoxicity against human MDA-MB-231 cells assessed as growth inhibition at 10 uM after 48 hrs by SRB assay relative to control", "settings": "MDA-MB-231, 48 h, read-out: GI"}, "NCI-H522": {"tested_on": "NCI-H522", "assay": "Cytotoxicity against human NCI-H522 cells assessed as growth inhibition at 10 uM after 48 hrs by SRB assay relative to control", "settings": "NCI-H522, 48 h, read-out: GI"}, "LOX IMVI": {"tested_on": "LOX IMVI", "assay": "Cytotoxicity against human LOXIMVI cells assessed as growth inhibition at 10 uM after 48 hrs by SRB assay relative to control", "settings": "read-out: GI"}, "HCT-15": {"tested_on": "HCT-15", "assay": "Cytotoxicity against human HCT15 cells assessed as growth inhibition at 10 uM after 48 hrs by SRB assay relative to control", "settings": "HCT-15, 48 h, read-out: GI"}, "SR": {"tested_on": "SR", "assay": "Cytotoxicity against human SR cells assessed as growth inhibition at 10 uM after 48 hrs by SRB assay relative to control", "settings": "read-out: GI"}, "HCT-116": {"tested_on": "HCT-116", "assay": "Cytotoxicity against human HCT116 cells assessed as growth inhibition at 10 uM after 48 hrs by SRB assay relative to control", "settings": "HCT-116, 48 h, read-out: GI"}, "HOP-92": {"tested_on": "HOP-92", "assay": "Cytotoxicity against human HOP92 cells assessed as growth inhibition at 10 uM after 48 hrs by SRB assay relative to control", "settings": "HOP-92, 48 h, read-out: GI"}, "SF-295": {"tested_on": "SF-295", "assay": "Cytotoxicity against human SF295 cells assessed as growth inhibition at 10 uM after 48 hrs by SRB assay relative to control", "settings": "SF-295, 48 h, read-out: GI"}, "UO-31": {"tested_on": "UO-31", "assay": "Cytotoxicity against human UO31 cells assessed as growth inhibition at 10 uM after 48 hrs by SRB assay relative to control", "settings": "UO-31, 48 h, read-out: GI"}, "Hs-578T": {"tested_on": "Hs-578T", "assay": "Cytotoxicity against human Hs578T cells assessed as growth inhibition at 10 uM after 48 hrs by SRB assay relative to control", "settings": "read-out: GI"}, "OVCAR-4": {"tested_on": "OVCAR-4", "assay": "Cytotoxicity against human OVCAR4 cells assessed as growth inhibition at 10 uM after 48 hrs by SRB assay relative to control", "settings": "OVCAR-4, 48 h, read-out: GI"}, "K562": {"tested_on": "K562", "assay": "Cytotoxicity against human K562 cells assessed as growth inhibition at 10 uM after 48 hrs by SRB assay relative to control", "settings": "K562, 48 h, read-out: GI"}, "IGROV-1": {"tested_on": "IGROV-1", "assay": "Cytotoxicity against human IGROV1 cells assessed as growth inhibition at 10 uM after 48 hrs by SRB assay relative to control", "settings": "IGROV-1, 48 h, read-out: GI"}, "OVCAR-8": {"tested_on": "OVCAR-8", "assay": "Cytotoxicity against human OVCAR8 cells assessed as growth inhibition at 10 uM after 48 hrs by SRB assay relative to control", "settings": "OVCAR-8, 48 h, read-out: GI"}, "SW-620": {"tested_on": "SW-620", "assay": "Cytotoxicity against human SW620 cells assessed as growth inhibition at 10 uM after 48 hrs by SRB assay relative to control", "settings": "SW-620, 48 h, read-out: GI"}},
  "data": [
    {"smiles": "O=c1oc2cc(Br)ccc2cc1-c1nc2ccccc2[nH]1", "values": [
      {"measurement": "inhibition of growth at 10 µM", "setting": "HOP-62", "result": "< 20", "unit": "%"},
      {"measurement": "inhibition of growth at 10 µM", "setting": "SK-MEL-2", "result": "< 20", "unit": "%"},
      {"measurement": "inhibition of growth at 10 µM", "setting": "HCC 2998", "result": "< 20", "unit": "%"},
      {"measurement": "inhibition of growth at 10 µM", "setting": "NCI-H226", "result": "< 20", "unit": "%"},
      {"measurement": "inhibition of growth at 10 µM", "setting": "DU-145", "result": 23.6, "unit": "%"},
      {"measurement": "inhibition of growth at 10 µM", "setting": "KM12", "result": "< 20", "unit": "%"},
      {"measurement": "inhibition of growth at 10 µM", "setting": "UACC-257", "result": "< 20", "unit": "%"},
      {"measurement": "inhibition of growth at 10 µM", "setting": "PC-3", "result": "< 20", "unit": "%"},
      {"measurement": "inhibition of growth at 10 µM", "setting": "NCI-H23", "result": "< 20", "unit": "%"},
      {"measurement": "inhibition of growth at 10 µM", "setting": "SK-MEL-5", "result": "< 20", "unit": "%"},
      {"measurement": "inhibition of growth at 10 µM", "setting": "U-251", "result": "< 20", "unit": "%"},
      {"measurement": "inhibition of growth at 10 µM", "setting": "Malme-3M", "result": "< 20", "unit": "%"},
      {"measurement": "inhibition of growth at 10 µM", "setting": "[1]", "result": "< 20", "unit": "%"},
      {"measurement": "inhibition of growth at 10 µM", "setting": "CCRF-CEM", "result": "< 20", "unit": "%"},
      {"measurement": "inhibition of growth at 10 µM", "setting": "OVCAR-3", "result": "< 20", "unit": "%"},
      {"measurement": "inhibition of growth at 10 µM", "setting": "SF-539", "result": "< 20", "unit": "%"},
      {"measurement": "inhibition of growth at 10 µM", "setting": "BT-549", "result": "< 20", "unit": "%"},
      {"measurement": "inhibition of growth at 10 µM", "setting": "MDA-MB-468", "result": "< 20", "unit": "%"},
      {"measurement": "inhibition of growth at 10 µM", "setting": "SNB-75", "result": 22.9, "unit": "%"},
      {"measurement": "inhibition of growth at 10 µM", "setting": "SF-268", "result": "< 20", "unit": "%"},
      {"measurement": "inhibition of growth at 10 µM", "setting": "MDA-MB-231", "result": 26, "unit": "%"},
      {"measurement": "inhibition of growth at 10 µM", "setting": "NCI-H522", "result": 20.6, "unit": "%"},
      {"measurement": "inhibition of growth at 10 µM", "setting": "LOX IMVI", "result": "< 20", "unit": "%"},
      {"measurement": "inhibition of growth at 10 µM", "setting": "HCT-15", "result": "< 20", "unit": "%"},
      {"measurement": "inhibition of growth at 10 µM", "setting": "SR", "result": 21.5, "unit": "%"},
      {"measurement": "inhibition of growth at 10 µM", "setting": "HCT-116", "result": "< 20", "unit": "%"},
      {"measurement": "inhibition of growth at 10 µM", "setting": "HOP-92", "result": 20.1, "unit": "%"},
      {"measurement": "inhibition of growth at 10 µM", "setting": "SF-295", "result": "< 20", "unit": "%"},
      {"measurement": "inhibition of growth at 10 µM", "setting": "UO-31", "result": 22.7, "unit": "%"},
      {"measurement": "inhibition of growth at 10 µM", "setting": "Hs-578T", "result": 25.1, "unit": "%"},
      {"measurement": "inhibition of growth at 10 µM", "setting": "OVCAR-4", "result": "< 20", "unit": "%"},
      {"measurement": "inhibition of growth at 10 µM", "setting": "K562", "result": "< 20", "unit": "%"},
      {"measurement": "inhibition of growth at 10 µM", "setting": "IGROV-1", "result": "< 20", "unit": "%"},
      {"measurement": "inhibition of growth at 10 µM", "setting": "OVCAR-8", "result": "< 20", "unit": "%"},
      {"measurement": "inhibition of growth at 10 µM", "setting": "SW-620", "result": "< 20", "unit": "%"}
    ]}
  ]
}
